Assay results from PubChem BioAssay (NCI).
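How tested: cells in 96-well plates exposed to compound for 48 hours at five concentrations. At the TGI there is no net growth.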

Key:
Test in all cases: growth of human tumour cells (NCI), 48 h
NCI-H460 lung = system: NCI-H460 lung
NCI-H226 lung = system: NCI-H226 lung
SNB-19 CNS = system: SNB-19 CNS
A549 NSCLC = system: A549 NSCLC
HL-60(TB) leukemia = system: HL-60(TB) leukemia
HS 578T breast = system: HS 578T breast
NCI-H522 lung = system: NCI-H522 lung
HCT-15 colon = system: HCT-15 colon
786-0 renal = system: 786-0 renal
M14 melanoma = system: M14 melanoma
NCI-H23 lung = system: NCI-H23 lung
SW-620 colon = system: SW-620 colon

| Structure (SMILES) | TGI (NCI-H460 lung) | TGI (NCI-H226 lung) | TGI (SNB-19 CNS) | TGI (A549 NSCLC) | TGI (HL-60(TB) leukemia) | TGI (HS 578T breast) | TGI (NCI-H522 lung) | TGI (HCT-15 colon) | TGI (786-0 renal) | TGI (M14 melanoma) | TGI (NCI-H23 lung) | TGI (SW-620 colon) |
| --- | --- | --- | --- | --- | --- | --- | --- | --- | --- | --- | --- | --- |
| COC(=O)/C=C1/OC(c2ccc(OC)cc2)=C(Cl)C1=O | 42.9 µM | 51.1 µM | 52.8 µM | 56.4 µM | 12.2 µM | 84 µM | 28.6 µM | 33.9 µM | 24.4 µM | 35.4 µM | 34.9 µM | 28.1 µM |
| CCO/C=N/C1=C(C#N)SC2=N/C(=C\c3ccccc3)C(=O)N21 | > 100 µM | > 100 µM | > 100 µM | > 100 µM | > 83.2 µM | > 100 µM | > 100 µM | > 100 µM | > 100 µM | > 100 µM | > 100 µM | > 100 µM |
| Fc1ccc(C(OCCN2CC3CCC(C2)N3CCCc2ccccc2)c2ccc(F)cc2)cc1 | 9.75 µM | 13.1 µM | 22.1 µM | 21.5 µM | 14.1 µM | 13.6 µM | 5.15 µM | 12.2 µM | 13.4 µM | 6.26 µM | 15.3 µM | 17.3 µM |
| COc1ccc(-c2c(C#N)c(S)n(NS(=O)(=O)c3ccccc3)c(=O)c2C#N)cc1 | > 100 µM | > 100 µM | > 100 µM | > 100 µM | > 100 µM | > 100 µM | 73 µM | > 100 µM | > 100 µM | > 100 µM | > 100 µM | > 100 µM |
